{"source": "paper PMC7914648", "about": "(Pharmaceuticals, 2021)", "key": {"SHSY-5Y cells": {"system": "SHSY-5Y cells", "assay": "MTS cell viability assay", "format": "cell-based", "conditions": "24 h treatment, 20, 10 and 3 μM, absorbance 490 nm, n = 3", "procedure": "SHSY-5Y cells (kindly provided by I. Szabò) were grown in Dulbecco’s Modified Eagle Medium (DMEM, Aurogene) supplemented with 10% (v/v) fetal bovine serum (FBS), 100 U/mL penicillin G, 0.1 mg/mL streptomycin and 5% glutamine.\nSHSY-5Y cells were seeded (10,000 cells/well) in standard 96-well plates in DMEM (200 µL). After 24 h, the growth medium was replaced with a medium containing PAPTP and PAPTPL (from a stock solution in DMSO) at the desired final concentrations (20, 10 and 3 μM). DMEM without additions (CONTROL in Figure 2) was used as negative control. The final concentration of DMSO was 0.1% or lower in all cases (including control). After incubation for 24 h, 20 µL of CellTiter 96 AQUEOUS One solution (Promega, Italy) were added to each well and the plate was incubated at 37 °C in a humidified, 5% CO2 atmosphere for 4 h. Absorbance was measured at 490 nm to detect formazan formation."}, "[1]": {"format": "in vivo, mouse", "conditions": "PAPTP 5 µmoles/kg bw i.v. in mouse plasma, same procedure", "procedure": "The brains of these mice were analyzed to evaluate the presence of the construct in the tissue (see Section 4.7). Each brain was homogenized and incubated with an equal volume of phosphate-buffered saline (PBS, pH 12.5) for 24 h; 10 volumes of ethyl acetate were then added. After vigorous mixing, the organic phase was collected, concentrated and analyzed via HPLC. This procedure allows hydrolysis of the carbamate bond, leading to the extraction of PAPTPL, which is considered proportional to the amount of peptide-PAPTP conjugate (or its fragments) present in the brain.\nThe protocol set up for PAPTPL recovery turned out to be inefficient for the quantification of TAT-PAPTP. An alternative protocol was thus developed. Tissue obtained from untreated mice was weighed and homogenized with PBS pH 7.4 (1 vol) with a potter. The pre-established amount of analyte was added into tissue homogenates and, after thorough vortexing, 1 vol of PBS pH 12.5 was added and the sample was incubated with intermittent vortexing at 60 °C for 24 h. This step is required to allow the hydrolysis of the carbamate bond connecting the peptide and PAPTPL. 10 vol of ethyl acetate were added and, after vortexing and sonication for 2 min, the sample was centrifuged at 12,000× g, 7 min, Room Temperature. The organic phase was collected and concentrated with Hetovac VR-1. ACN was added to the concentrated sample to allow the resuspension of PAPTPL and analyzed via HPLC. Quantification was as described for PAPTPL.\nBrain and liver obtained from untreated mice were weighed and homogenized with PBS pH 7.4 (1 vol) with a potter. The pre-established amount of analyte was added into tissue homogenates and, after thorough vortexing, 5 vol of acetone were added and the sample was sonicated for 2 min. Subsequently, 5 vol of ACN containing 0.1% trifluoracetic acid (TFA) were added and the sample was sonicated for 5 min. The sample was then centrifuged at 12,000× g for 7 min at 4 °C and the supernatant was collected, concentrated with a Hetovac VR-1, and analyzed via HPLC-UV.\nTo quantify the amount of An2-PAPTP stuck in the tissue, the pellet remaining after the procedure described above was incubated with intermittent Vortexing at 60 °C for 3 h with PBS pH 12.5/ACN 1:1 and then centrifuged at 12,000× g for 7 min. HPLC-UV analysis of the supernatant, measuring PAPTPL hydrolyzed from the tissue, thus indirectly reflects the amount of An2-PAPTPL in the pellet (Scheme 3). Quantification was as described for PAPTPL.\n(§1) A stock solution of the peptide-PAPTP conjugates was prepared in DMSO. TAT-PAPTP was administered at 8 and 5 μmol/kg bw and An2-PAPTP only at 5 μmol/kg bw. The calculated quantity of drugs was diluted from the stock solution in saline or mouse plasma to a final volume of 200 μL."}, "C57BL mice": {"system": "C57BL mice", "assay": "Observed toxicity after tail vein injection", "format": "in vivo", "conditions": "5 µmoles/kg bw by tail vein injection in mouse plasma; no proper toxicological study", "procedure": "TAT-PAPTP (5 µmoles/kg bw) was administered by tail vein injection to 2 C57BL mice. […] The observed toxicity was not due to the use of plasma, since mice were not made ill by the administration of PAPTP or An2-PAPTP in the same vehicle (see below, Section 2.7).\nas §1"}, "[2]": {"assay": "Visible precipitation in mouse plasma vehicle", "format": "physicochemical", "conditions": "mouse plasma used as administration vehicle", "from_the_text": "We are not aware of other pharmacological studies utilizing plasma as a vehicle, but a precedent of sorts is provided by some rejuvenation or induced aging studies that examined the systemic effects of heterologous plasma administration."}, "[3]": {"system": "cultured glioma and glioblastoma cell lines", "conditions": "cited from earlier work", "from_the_text": "(§2) In turn, this difficulty may be due at least in part precisely to the TPP group, since the parent compound, PAP-1, is effective against various Central Nervous System (CNS) disorders. This difficulty is not surprising if one compares the characteristics of ..."}, "orthotopic glioma": {"system": "orthotopic glioma", "conditions": "orthotopic murine model; cited from earlier work", "from_the_text": "as §2"}, "[4]": {"assay": "heart after tail vein injection", "conditions": "C57BL/6 mice, up to 60 min"}, "[5]": {"assay": "spleen after tail vein injection", "conditions": "C57BL/6 mice, up to 60 min"}, "[6]": {"assay": "kidneys after tail vein injection", "conditions": "C57BL/6 mice, up to 60 min"}, "[7]": {"assay": "liver extract after tail vein injection", "conditions": "C57BL/6 mice, up to 60 min"}, "[8]": {"assay": "fresh mouse blood, withdrawn from the jugular vein and heparinized", "conditions": "C57BL mice, 37 °C, up to 4 h"}, "mice": {"system": "mice", "conditions": "cited from earlier work", "procedure": "While in the name of “reduction” a proper toxicological study was not carried out, the toxicity of TAT-PAPTP was evident. Peptide toxicity issues are not often discussed in the literature, but peptides, in particular arginine-rich ones, can be toxic in vivo as well as for cultured cells. […] Here the TAT-PAPTP conjugate was administered at 5 µmol/kg bw. However, conjugates can behave differently and have different toxicities depending on the attached “cargo” [54, 65, 66], as confirmed by the results of the present ..."}, "[9]": {"conditions": "mouse, in vivo, iv; cited from earlier work"}, "[10]": {"assay": "Planar bilayer experiments (membrane permeabilization)", "conditions": "2 µM added to cis side, DPhPC bilayer, −40 mV, n = 3", "procedure": "The possible effects of An2-PAPTP and TAT-PAPTP on phospholipid membranes were investigated using the lipid bilayer technique. Bilayers with a capacity of 100–150 pF were prepared “painting” a diphytanoylphosphatidylcholine (DPhPC, Avanti Polar Lipids) solution in octane across a 150-µm hole in a Delrin cuvette (Warner Instruments, a division of Harvard Bioscience, Inc., Holliston, MA, USA). The two compartments separated by the bilayer are identified as cis and trans, and all voltages refer to the cis side, zero being assigned to the trans (grounded) one. One mL of recording solution (150 mM KCl, 10 mM HEPES/KOH, pH 7.4) was placed in both compartments. The contents of both chambers were stirred by magnetic bars when necessary. […] An2-PAPTP or TAT-PAPTP (DMSO stock solution) in a final concentration of 0.5 µM were added to the cis side. The final concentration of DMSO was 0.6%. 2 µM gramicidin from Bacillus brevis (Sigma) was added to the cis side as control.\nElectrical connections were made using Ag/AgCl electrodes and agar salt bridges to minimize eliminate liquid junction potentials. Data were acquired at 10 kHz using a Bilayer Clamp BC-525C amplifier (Warner Instruments, a division of Harvard Bioscience, Inc., Holliston, MA, USA.) and low-pass filtered at 300 Hz for presentation. […]"}}, "note": "Entries after “also recorded” stand apart in the source; their conditions may differ."}
{"compound": "O=c1ccc2c(OCCCCOc3ccc(CCC[P+](c4ccccc4)(c4ccccc4)c4ccccc4)cc3)c3ccoc3cc2o1.[I-]", "note": "[PAPTP, (3-(4-(4-((7-oxo-7H-furo[3,2-g]benzopyran-4-yl)oxy)butoxy)phenyl)propyl) triphenyl phosphonium iodide]", "values": [{"measurement": "cytotoxic effect (cell viability, MTS reduction assay)", "setting": "SHSY-5Y cells", "value": "marked cytotoxicity"}, {"measurement": "level in brain after i.v. PAPTP", "setting": "[1]", "value": "did not reach detectable levels"}, {"measurement": "observed toxicity in mice", "setting": "C57BL mice", "value": "not made ill; also recorded: No sign of toxicity was observed"}, {"measurement": "visible precipitates in plasma", "setting": "[2]", "value": "did not form visible precipitates"}, {"measurement": "killing of cultured glioma and glioblastoma cell lines", "setting": "[3]", "value": "efficiently killed"}, {"measurement": "effect on tumor growth", "setting": "orthotopic glioma", "value": "did not affect tumor growth"}]}
{"compound": "HN-ITFFYGGSRGKRNNFKTEEY-OH", "values": [{"measurement": "fragment found", "setting": "[4]", "value": "PAPTPL, 15 min; also recorded: PAPTPL-IT, 30 min; also recorded: PAPTPL-ITF, 30 min"}, {"measurement": "fragment found", "setting": "[5]", "value": "PAPTPL-ITF, 15 min; also recorded: PAPTPL-I, 15 min; also recorded: PAPTPL-IT, 15 min"}, {"measurement": "fragment found", "setting": "[6]", "value": "PAPTPL-I, 15 min; also recorded: PAPTPL-IT, 15 min; also recorded: PAPTPL-ITF, 15 min"}, {"measurement": "fragment found", "setting": "[7]", "value": "PAPTPL-I, 15 min; also recorded: PAPTPL-IT, 15 min; also recorded: PAPTPL-ITF, 15 min"}, {"measurement": "cleaved bond", "setting": "[8]", "value": "hydrolysis of the carbamate bond connecting the peptide and PAPTPL, 10 min"}]}
{"compound": "TAT47–57: arginine-rich TAT peptide segment", "values": [{"measurement": "LD50", "setting": "mice", "value": 17.5, "unit": "µmol/kg bw"}]}
{"compound": "TWPKHFDKHTFYSILKLGKH [L57]", "values": [{"measurement": "brain input", "setting": "[9]", "value": "approximately 0.04 % of the injected dose"}]}
{"compound": "gramicidin", "values": [{"measurement": "appearance of ion currents in planar bilayers (control)", "setting": "[10]", "value": "expected development of “fast” ion currents"}]}
